# Tested on: weeds
# Experiment: Actual control effects and combined effects of mixtures of active ingredients (i) and (ii), stem-leaf treatment, Gowing method
# Assay type: in vivo
# Conditions: 20 days
compound,measurement,setting,value
CCSc1c(C(F)(F)F)ccc(C(=O)Nc2nnc(C)o2)c1F [Compound 1-4],Control effect of (i) alone at corresponding dose,"Cyperus difformis, (i) 0.3 g a.i./mu",4.1%
same,Control effect of (i) alone at corresponding dose,"Cyperus difformis, (i) 1 g a.i./mu",6.3%
same,Control effect of (i) alone at corresponding dose,"Cyperus difformis, (i) 1.5 g a.i./mu",9.2%
same,Control effect of (i) alone at corresponding dose,"Cyperus difformis, (i) 3 g a.i./mu",15.2%
same,Control effect of (i) alone at corresponding dose,"Cyperus difformis, (i) 6 g a.i./mu",25.6%
same,Control effect of (i) alone at corresponding dose,"Cyperus difformis, (i) 9 g a.i./mu",32.1%
same,Control effect of (i) alone at corresponding dose,"Echinochloa phyllopogon, (i) 0.6 g a.i./mu",20.5%
same,Control effect of (i) alone at corresponding dose,"Echinochloa phyllopogon, (i) 0.7 g a.i./mu",25.1%
same,Control effect of (i) alone at corresponding dose,"Echinochloa phyllopogon, (i) 0.75 g a.i./mu",30.3%
same,Control effect of (i) alone at corresponding dose,"Echinochloa phyllopogon, (i) 1 g a.i./mu",36.6%
same,Control effect of (i) alone at corresponding dose,"Echinochloa phyllopogon, (i) 1.5 g a.i./mu",41.5%
same,Control effect of (i) alone at corresponding dose,"Echinochloa phyllopogon, (i) 1.6 g a.i./mu",45.3%
same,Control effect of (i) alone at corresponding dose,"Echinochloa phyllopogon, (i) 3 g a.i./mu",60.2%
same,Control effect of (i) alone at corresponding dose,"Leptochloa chinensis, (i) 3 g a.i./mu",18.6%
same,Control effect of (i) alone at corresponding dose,"Leptochloa chinensis, (i) 15 g a.i./mu",45.6%
same,Control effect of (i) alone at corresponding dose,"Monochoria vaginalis, (i) 0.8 g a.i./mu",5.8%
same,Control effect of (i) alone at corresponding dose,"Monochoria vaginalis, (i) 1 g a.i./mu",6.2%
same,Control effect of (i) alone at corresponding dose,"Monochoria vaginalis, (i) 1.8 g a.i./mu",8.6%
same,Control effect of (i) alone at corresponding dose,"Monochoria vaginalis, (i) 2.4 g a.i./mu",10.2%
same,Control effect of (i) alone at corresponding dose,"Monochoria vaginalis, (i) 3 g a.i./mu",12.7%
same,Control effect of (i) alone at corresponding dose,"Monochoria vaginalis, (i) 3.5 g a.i./mu",13.3%
same,Control effect of (i) alone at corresponding dose,"Monochoria vaginalis, (i) 5 g a.i./mu",19.6%
same,Control effect of (i) alone at corresponding dose,"Monochoria vaginalis, (i) 6 g a.i./mu",28.6%
same,Control effect of (i) alone at corresponding dose,"Monochoria vaginalis, (i) 10 g a.i./mu",31.7%
same,Control effect of (i) alone at corresponding dose,"Monochoria vaginalis, (i) 15 g a.i./mu",40.5%
same,Control effect of (i) alone at corresponding dose,"Sagittaria trifolia L., (i) 0.75 g a.i./mu",16.3%
same,Control effect of (i) alone at corresponding dose,"Sagittaria trifolia L., (i) 3 g a.i./mu",60.3%

# — patent US20230041563A1, “N-(1,3,4-OXADIAZOL-2-YL)ARYLCARBOXAMIDES OR SALTS THEREOF, PREPARATION METHODS, HERBICIDAL COMPOSITIONS AND USES THEREOF” (priority 2018, published 2023)
